The text below walks through data of patent publication US8785445B2 (Array BioPharma Inc., priority 2008, dated 2014).

This assay deals with T1, human DP2 (Homo sapiens, UniProt Q9Y5Y4).
T1 construct: expressed in transfected cells; membranes prepared
T1 sequence (Q9Y5Y4 1-395): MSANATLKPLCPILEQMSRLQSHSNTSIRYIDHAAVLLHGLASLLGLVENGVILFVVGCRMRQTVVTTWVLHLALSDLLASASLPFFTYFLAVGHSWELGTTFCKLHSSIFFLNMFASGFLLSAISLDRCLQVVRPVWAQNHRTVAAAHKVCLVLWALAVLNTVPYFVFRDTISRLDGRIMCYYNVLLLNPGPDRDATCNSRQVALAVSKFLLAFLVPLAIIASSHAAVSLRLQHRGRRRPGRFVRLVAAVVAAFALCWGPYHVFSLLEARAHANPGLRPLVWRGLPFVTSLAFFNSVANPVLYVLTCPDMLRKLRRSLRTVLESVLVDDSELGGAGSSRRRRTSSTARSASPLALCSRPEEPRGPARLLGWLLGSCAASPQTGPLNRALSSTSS
Kind of assay: DP-2 binding inhibition assay (3H-PGD2, membranes of DP2-expressing K562 cells). Here is the method: The coding sequence of human DP2 was introduced into the human Leukemic cell line K562 by electroporation and stable clones expressing DP2 were obtained by limiting dilution followed by cell surface staining with a rat monoclonal antibody specific for human DP2. Membranes were prepared from one of these DP2 expressing clones and used to determine the ability of the compounds of the present invention to inhibit binding of prostaglandin D2 (PGD2) to its receptor DP2 in the presence of one or more of the following serum protein concentrations, 0.1% BSA, 1% HSA or 4% HSA, by the following procedure. […] After incubation for 60 minutes at room temperature, the assay was transferred to a filtration plate (#MAFB; Millipore Corporation, Bedford, Mass.), and washed three times with binding buffer. Radioactivity was measured by a scintillation counter (TopCount; PerkinElmer Life Sciences, Boston, Mass.). Nonspecific binding was determined by incubations in the presence of 1 μM unlabeled PGD2 or 5 μM of a known DP2 antagonist. IC50 values for inhibition of binding were determined for each compound tested from the inflexion point of a standard 4-parameter logistical curve fitted to the values obtained.

Where [1] appears, read: 4% HSA, read-out: EC50 (nM) 4% HSA.
Setting [2] is: 0.1% BSA, read-out: EC50 (nM) 0.1% BSA.

Like-named read-outs stand apart in the source and are kept apart here.

For `O=C(Nc1cnc(-c2ccc(C(F)(F)F)cc2)cn1)c1ccc(Oc2cc3c(cc2Cl)C(C(=O)O)CCO3)cc1` (stereo not shown) [Example 61, Sodium 6-chloro-7-(4-(5-(4-(trifluoromethyl)phenyl)pyrazin-2-ylcarbamoyl)phenoxy)chroman-4-carboxylate], the EC50 under setting [1] worked out at 539 nM.

As to `O=C(Nc1cccc(C2CC2)n1)c1ccc(Oc2cc3c(cc2Cl)C(C(=O)O)CCO3)cc1` (stereo not shown) [Example 111, 6-Chloro-7-(4-(6-cyclopropylpyridin-2-ylcarbamoyl)phenoxy)chroman-4-carboxylic acid], the EC50 under setting [1] amounted to 1460 nM.

With `COc1ncccc1CCNC(=O)c1ccc(Oc2cc3c(cc2Cl)C(C(=O)O)CCO3)cc1` (stereo not shown) [Example 227, 6-chloro-7-(4-(2-(2-methoxypyridin-3-yl)ethylcarbamoyl)phenoxy) chroman-4-carboxylic acid], the EC50 under setting [1] was found to be 857 nM.

On to `O=C(Nc1cnn(-c2cccc(Cl)c2)c1)c1ccc(Oc2c(Cl)cc3c(c2Cl)OCCC3C(=O)O)cc1` (stereo not shown) [Example 165, Sodium 6,8-dichloro-7-(4-(1-(3-chlorophenyl)-1H-pyrazol-4-ylcarbamoyl)phenoxy)chroman-4-carboxylate], for which the EC50 under setting [1] turned out to be 187 nM.

Consider `O=C(Nc1ccc(-c2ccc(Cl)cc2)cn1)c1ccc(Oc2cc3c(cc2Cl)C(C(=O)O)CCO3)cc1` (stereo not shown) [Example 115, 6-Chloro-7-(4-(5-(4-chlorophenyl)pyridin-2-ylcarbamoyl)phenoxy)chroman-4-carboxylic acid], for which, under setting [1], the EC50 is 342 nM.

Turning to `CCc1oc(NC(=O)c2ccc(Oc3cc4c(cc3Cl)C(C(=O)O)CCO4)cc2)nc1-c1ccccc1` (stereo not shown) [Example 159, 6-chloro-7-(4-(5-ethyl-4-phenyloxazol-2-ylcarbamoyl)phenoxy)chroman-4-carboxylic acid], the EC50 under setting [1] is 437 nM.

As for `N#Cc1cc2c(cc1Oc1ccc(C(=O)Nc3ccc(C(F)(F)F)cn3)cc1)OCCC2C(=O)O` (stereo not shown) [Example 1, 7-(4-((5-(Trifluoromethyl)pyridin-2-yl)carbamoyl)phenoxy)-6-cyanochroman-4-carboxylic acid], the EC50 under setting [2] was 19.3 nM.

Consider `CC(C)(C)c1cccc(NC(=O)c2ccc(Oc3cc4c(cc3Cl)C(C(=O)O)CCO4)cc2)n1` (stereo not shown) [Example 114, 7-(4-(6-tert-Butylpyridin-2-ylcarbamoyl)phenoxy)-6-chlorochroman-4-carboxylic acid], for which the EC50 under setting [1] was 276 nM.

Regarding `Cc1cc(-c2cccc(NC(=O)c3ccc(Oc4cc5c(cc4Cl)C(C(=O)O)CCO5)cc3)n2)ccc1F` (stereo not shown) [Example 84, 6-Chloro-7-(4-(6-(4-fluoro-3-methylphenyl)pyridin-2-ylcarbamoyl)phenoxy)chroman-4-carboxylic acid], the EC50 under setting [1] was 144 nM.

Turning to `O=C(Nc1ccc(-c2ccccc2Cl)nc1)c1ccc(Oc2cc3c(cc2Cl)C(C(=O)O)CCO3)cc1` (stereo not shown) [Example 125, 6-Chloro-7-(4-(6-(2-chlorophenyl)pyridin-3-ylcarbamoyl)phenoxy)chroman-4-carboxylic acid], under setting [1], the 50% effective concentration (EC50) is 627 nM.

Turning to `CC(C)c1nsc(NC(=O)c2ccc(Oc3cc4c(cc3Cl)C(C(=O)O)CCO4)cc2)n1` (stereo not shown) [Example 160, 6-chloro-7-(4-(3-isopropyl-1,2,4-thiadiazol-5-ylcarbamoyl)phenoxy)chroman-4-carboxylic acid], the EC50 under setting [1] came out at 849 nM.

In the case of `O=C(Nc1cccc(-c2ccc(C(F)(F)F)cc2)n1)c1ccc(Oc2cc3c(cc2Cl)C(C(=O)O)CCO3)cc1` (stereo not shown) [Example 110, 6-Chloro-7-(4-(6-(4-(trifluoromethyl)phenyl)pyridin-2-ylcarbamoyl)phenoxy)chroman-4-carboxylic acid], the EC50 under setting [1] is 25.2 nM.

Consider `O=C(Nc1cccc(-c2ccccc2)n1)c1ccc(Oc2cc3c(cc2Cl)C(C(=O)O)CCO3)cc1` (stereo not shown) [Example 27, 6-chloro-7-(4-(6-phenylpyridin-2-ylcarbamoyl)phenoxy)chroman-4-carboxylic acid], for which the EC50 under setting [1] amounted to 173 nM.

For the compound `O=C(Nc1nccc(-c2ccc(Cl)cc2)n1)c1ccc(Oc2cc3c(cc2Cl)C(C(=O)O)CCO3)cc1` (stereo not shown) [Example 132, 6-Chloro-7-(4-(4-(4-chlorophenyl)pyrimidin-2-ylcarbamoyl)phenoxy)chroman-4-carboxylic acid], under setting [1], the EC50 amounted to 128 nM.

As for `N#Cc1cc2c(cc1Oc1ccc(C(=O)Nc3ccc(Cl)cn3)cc1)OCCC2C(=O)O` (stereo not shown) [Example 2, 7-(4-(5-Chloropyridin-2-ylcarbamoyl)phenoxy)-6-cyanochroman-4-carboxylic acid], the EC50 under setting [2] amounted to 26.7 nM.

In the case of `Cc1nc(NC(=O)c2ccc(Oc3cc4c(cc3Cl)C(C(=O)O)CCO4)cc2)sc1C(C)(C)C` (stereo not shown) [Example 151, 7-(4-(5-tert-butyl-4-methylthiazol-2-ylcarbamoyl)phenoxy)-6-chlorochroman-4-carboxylic acid], the EC50 under setting [1] amounted to 473 nM.

Regarding `O=C(NCCc1ncc(Cl)cc1Cl)c1ccc(Oc2cc3c(cc2Cl)C(C(=O)O)CCO3)cc1` (stereo not shown) [Example 138, Sodium 6-chloro-7-(4-(2-(3,5-dichloropyridin-2-yl)ethylcarbamoyl)phenoxy)chroman-4-carboxylate], the EC50 under setting [1] was found to be 687 nM.

For the compound `O=C(Nc1cccc(-c2ccc(Cl)cc2)n1)c1ccc(Oc2cc3c(cc2Cl)[C@@H](C(=O)O)CCO3)cc1` (single isomer, unassigned; enantiomer 1) [Example 141, 6-Chloro-7-(4-(6-(4-chlorophenyl)pyridin-2-ylcarbamoyl)phenoxy)chroman-4-carboxylic acid, Enantiomer 1], under setting [1], the EC50 is 3920 nM.

In the case of `O=C(Nc1ccc2cc(Cl)ccc2n1)c1ccc(Oc2cc3c(cc2Cl)[C@@H](C(=O)O)CCO3)cc1` (single isomer, unassigned; enantiomer 2) [Example 37, 6-Chloro-7-(4-(6-chloroquinolin-2-ylcarbamoyl)phenoxy)chroman-4-carboxylic acid, Enantiomer 2], the EC50 under setting [1] is 4000 nM.

Regarding `O=C(Nc1ccnc(-c2ccc(Cl)cc2)c1)c1ccc(Oc2cc3c(cc2Cl)C(C(=O)O)CCO3)cc1` (stereo not shown) [Example 128, 6-Chloro-7-(4-(2-(4-chlorophenyl)pyridin-4-ylcarbamoyl)phenoxy)chroman-4-carboxylic acid], the EC50 under setting [1] worked out at 596 nM.

In the case of `Cc1ccc(-c2cccc(NC(=O)c3ccc(Oc4cc5c(cc4C#N)C(C(=O)O)CCO5)cc3)n2)cc1C` (stereo not shown) [Example 13, 6-Cyano-7-(4-(6-(3,4-dimethylphenyl)pyridin-2-ylcarbamoyl)phenoxy)chroman-4-carboxylic acid], the EC50 under setting [1] is 45.1 nM.

On to `COc1ccc(-c2ccc(NC(=O)c3ccc(Oc4cc5c(cc4Cl)C(C(=O)O)CCO5)cc3)nc2)cn1` (stereo not shown) [Example 73, Sodium 6-chloro-7-(4-(6′-methoxy-3,3′-bipyridin-6-ylcarbamoyl)phenoxy)chroman-4-carboxylate], for which the half-maximal effective concentration (EC50) under setting [1] came out at 959 nM.

Regarding `N#Cc1cc2c(cc1Oc1ccc(C(=O)Nc3nc4ccc(C(F)(F)F)cc4s3)cc1)OCCC2C(=O)O` (stereo not shown) [Example 201, 6-cyano-7-(4-(6-(trifluoromethyl)benzo[d]thiazol-2-ylcarbamoyl)phenoxy)chroman-4-carboxylic acid], the EC50 was found to be 5.1 nM under setting [2] and 355 nM under setting [1].

Turning to `CC(C)(C)Sc1cccc(NC(=O)c2ccc(Oc3cc4c(cc3Cl)C(C(=O)O)CCO4)cc2)n1` (stereo not shown) [Example 91, 7-(4-(6-(tert-Butylthio)pyridin-2-ylcarbamoyl)phenoxy)-6-chlorochroman-4-carboxylic acid], under setting [1], the EC50 was 897 nM.
